Measurements published in article PMC3867523 (Journal of hepatology, 2013).
pIC50: −log10 of the molar value. Ends that are not written are not given here.

Each sequence was assayed against HLA-B*27:05 (Homo sapiens, UniProt P01889, D138H/D201E/E176V/E204Q/G107R/H137Y/K202T/N104T/N87E/Q56L/Q94K/R106L/R155S/R180L/S101D/S121N/S48T/Y140D/Y33H/Y91C) (assay: biochemical).
Assay type: binding

| Sequence | pIC50 |
| --- | --- |
| ARHTPVNSW [NS5B-2820] | 6.47 |
| ARMILMTHF [NS5B-2841] | 8.96 |
| GRAAICGKY [NS5B-2936] | 9.00 |
